Measurements as given in paper PMC7181660, “A novel specific PERK activator reduces toxicity and extends survival in Huntington's disease models” (Scientific Reports, 2020).
Several values for one entry are separate records, joined by “and”; a condition that tells them apart may be missing. Equal entries are not always repeated. Where two headings read alike, the source gives them in different places.

Key:
Test in all cases: biochemical
Type in all cases: biochemical
[1] = molecular target: panel of 391 kinases (Homo sapiens, UniProt Q9BQI3); conditions: kinase EIF2AK1, compound at 1 µM, single dose in duplicates, 1 µM ATP
[2] = molecular target: panel of 391 kinases (Homo sapiens, UniProt P49759); conditions: CLK1, MK-28 1 µM, ATP 1 µM
[3] = molecular target: panel of 391 kinases (Homo sapiens, UniProt P28482); conditions: ERK2/MAPK1, MK-28 1 µM, ATP 1 µM
[4] = molecular target: T1, panel of 391 kinases (Homo sapiens, UniProt P10398); conditions: ARAF, MK-28 1 µM, ATP 1 µM
T1 sequence (P10398 1-606): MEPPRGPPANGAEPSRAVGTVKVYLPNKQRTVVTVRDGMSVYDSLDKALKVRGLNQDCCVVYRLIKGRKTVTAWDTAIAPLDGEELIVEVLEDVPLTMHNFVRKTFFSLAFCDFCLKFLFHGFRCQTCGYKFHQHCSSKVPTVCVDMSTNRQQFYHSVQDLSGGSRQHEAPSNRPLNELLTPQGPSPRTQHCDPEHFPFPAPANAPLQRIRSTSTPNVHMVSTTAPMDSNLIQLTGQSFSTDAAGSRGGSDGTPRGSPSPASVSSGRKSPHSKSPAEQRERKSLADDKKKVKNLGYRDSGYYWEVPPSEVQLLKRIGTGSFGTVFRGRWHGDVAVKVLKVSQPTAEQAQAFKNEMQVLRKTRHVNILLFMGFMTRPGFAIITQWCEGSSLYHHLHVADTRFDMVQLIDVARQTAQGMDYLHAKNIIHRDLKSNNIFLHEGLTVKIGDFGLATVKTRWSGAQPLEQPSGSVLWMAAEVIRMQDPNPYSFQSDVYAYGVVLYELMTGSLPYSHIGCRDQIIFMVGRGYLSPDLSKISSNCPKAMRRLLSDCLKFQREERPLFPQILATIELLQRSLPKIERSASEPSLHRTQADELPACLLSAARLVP

[5] = molecular target: panel of 391 kinases (Homo sapiens, UniProt P36507); conditions: MEK2, MK-28 1 µM, ATP 1 µM
[6] = molecular target: panel of 391 kinases (Homo sapiens, UniProt Q15139); conditions: PKCmu/PRKD1, MK-28 1 µM, ATP 1 µM
[7] = molecular target: panel of 391 kinases (Homo sapiens, UniProt Q96RG2); conditions: PASK, MK-28 1 µM, ATP 1 µM
[8] = molecular target: panel of 391 kinases (Homo sapiens, UniProt Q9Y572); conditions: RIPK3, MK-28 1 µM, ATP 1 µM
[9] = molecular target: panel of 391 kinases (Homo sapiens, UniProt Q14012); conditions: CAMK1a, MK-28 1 µM, ATP 1 µM
[10] = molecular target: panel of 391 kinases (Homo sapiens, UniProt O60674); conditions: JAK2, MK-28 1 µM, ATP 1 µM
[11] = molecular target: panel of 391 kinases (Homo sapiens, UniProt Q00535); conditions: MK-28 1 µM, ATP 1 µM; for remaining activity at 1 µM: read-out: % Enzyme Activity (relative to DMSO controls)
[12] = molecular target: panel of 391 kinases (Homo sapiens, UniProt P43250); conditions: GRK6, MK-28 1 µM, ATP 1 µM
[13] = tested on: panel of 391 kinases; conditions: for % Enzyme Activity (relative to DMSO controls): MK-28 1 µM, ATP 1 µM
[14] = molecular target: panel of 391 kinases (Homo sapiens, UniProt Q9UEE5); conditions: DRAK1/STK17A, MK-28 1 µM, ATP 1 µM
[15] = molecular target: panel of 391 kinases (Homo sapiens, UniProt Q6P3R8); conditions: NEK5, MK-28 1 µM, ATP 1 µM
[16] = molecular target: panel of 391 kinases (Homo sapiens, UniProt O75914); conditions: PAK3, MK-28 1 µM, ATP 1 µM
[17] = molecular target: panel of 391 kinases (Homo sapiens, UniProt P35916); conditions: FLT4/VEGFR3, MK-28 1 µM, ATP 1 µM
[18] = molecular target: panel of 391 kinases (Homo sapiens, UniProt Q8N4C8); conditions: MINK/MINK1, MK-28 1 µM, ATP 1 µM
[19] = molecular target: panel of 391 kinases (Homo sapiens, UniProt Q6DT37); conditions: DMPK2, MK-28 1 µM, ATP 1 µM
[20] = molecular target: panel of 391 kinases (Homo sapiens, UniProt Q9UM73); conditions: ALK, MK-28 1 µM, ATP 1 µM
[21] = molecular target: panel of 391 kinases (Homo sapiens, UniProt Q16584); conditions: MLK3/MAP3K11, MK-28 1 µM, ATP 1 µM
[22] = read-out: % Enzyme Activity (relative to DMSO controls)

CN(/N=C\c1ccc(O)c(O)c1)c1nc(-c2ccccc2)cc(-c2ccccc2)n1 [MK-28]
% Enzyme Activity (relative to DMSO controls) [1]: 96.86%
remaining activity at 1 µM [1, 22]: 100%
% Enzyme Activity (relative to DMSO controls) [2]: 108.65%
remaining activity at 1 µM [2, 22]: 109%
% Enzyme Activity (relative to DMSO controls) [3]: 105.81%
remaining activity at 1 µM [3, 22]: 107%
% Enzyme Activity (relative to DMSO controls) [4]: 93.30%
remaining activity at 1 µM [4, 22]: 96.2%
% Enzyme Activity (relative to DMSO controls) [5]: 98.80%
remaining activity at 1 µM [5, 22]: 99.9%
% Enzyme Activity (relative to DMSO controls) [6]: 94.26%
remaining activity at 1 µM [6, 22]: 95.3%
% Enzyme Activity (relative to DMSO controls) [7]: 91.44%
remaining activity at 1 µM [7, 22]: 95.4%
% Enzyme Activity (relative to DMSO controls) [8]: 100.16%
remaining activity at 1 µM [8, 22]: 101%
% Enzyme Activity (relative to DMSO controls) [9]: 77.40%
remaining activity at 1 µM [9, 22]: 77.7%
% Enzyme Activity (relative to DMSO controls) [10]: 91.77%
remaining activity at 1 µM [10, 22]: 93.8%
% Enzyme Activity (relative to DMSO controls) ([11]; CDK5/p25): 93.55%
remaining activity at 1 µM ([11]; CDK5/p25): 93.6%
% Enzyme Activity (relative to DMSO controls) ([11]; CDK5/p35): 96.39%
remaining activity at 1 µM ([11]; CDK5/p35): 96.6%
% Enzyme Activity (relative to DMSO controls) [12]: 102.17%
remaining activity at 1 µM [12, 22]: 104%
number of other hits showing more than 30% increase over control ([13]; 1 μM, 391-kinase panel): 3
% Enzyme Activity (relative to DMSO controls) ([13]; LYN B): 100.85% and 99.31%
% Enzyme Activity (relative to DMSO controls) ([13]; PKCb2): 90.95% and 90.23%
% Enzyme Activity (relative to DMSO controls) ([13]; PKG1b): 113.02% and 112.43%
% Enzyme Activity (relative to DMSO controls) [14]: 99.69%
remaining activity at 1 µM [14, 22]: 102%
% Enzyme Activity (relative to DMSO controls) [15]: 79.32%
remaining activity at 1 µM [15, 22]: 81.8%
% Enzyme Activity (relative to DMSO controls) [16]: 116.60%
remaining activity at 1 µM [16, 22]: 117%
% Enzyme Activity (relative to DMSO controls) [17]: 92.88%
remaining activity at 1 µM [17, 22]: 94.1%
% Enzyme Activity (relative to DMSO controls) [18]: 95.98%
remaining activity at 1 µM [18, 22]: 98.7%
% Enzyme Activity (relative to DMSO controls) [19]: 101.16%
remaining activity at 1 µM [19, 22]: 106%
% Enzyme Activity (relative to DMSO controls) [20]: 82.73%
remaining activity at 1 µM [20, 22]: 82.8%
% Enzyme Activity (relative to DMSO controls) [21]: 162.84%
remaining activity at 1 µM [21, 22]: 168%
